Source: patent US8557795B2, “Composition containing Chamaecyparis obtusa polysaccharides to be externally applied to the skin” (Amorepacific Corporation, priority 2009, dated 2013)

Key:
[1] = tested on: C57BL/6 mouse melanocytes (Mel-Ab cells); experiment: Melanin production inhibitory effect using mouse melanocytes; type: cell-based; details: 72 h, 3 days
Method: Mouse melanocytes were used to examine the melanin production inhibitory effect of the Chamaecyparis obtusa polysaccharide of the present invention. First, C57BL/6 mouse melanocytes (Mel-Ab cells) (Dooley, T. P. et al, Skin pharmacol, 7, pp 188-200) were cultured in DMEM (Dulbeccos modified Eagles media), containing 10% fetal bovine serum, 100 nM 2-O-tetradecanoyphorbol-13-acetate and 1 nM cholera toxin, in conditions of 37° C. and 5% CO2. The cultured Mel-Ab cells were detached with 0.25% trypsin-EDTA and cultured in a 24-well culture plate at a concentration of 10^5 cells/well. Then, from 2 days of culture, each of 10 ppm, 50 ppm and 100 ppm of the Chamaecyparis obtusa polysaccharide was continuously added thereto and cultured for 3 days. Herein, arbutin was used as a positive control. Then, the media were removed, and the cells were washed with PBS and lysed with 1N sodium hydroxide. The lysed cells were measured for absorbance at 400 nm, and based on the measured absorbance, the inhibition (%) of melanin production was calculated according to the following equation 2. Inhibition (%) of melanin production=100−(absorbance of each test material/absorbance of control×100) [Equation 2]

human keratinocytes = experiment: Induction of differentiation of human keratinocytes (cornified envelop amount); type: cell-based; details: Ca^2+ 1.2 mM (positive control); relative to 100 for low calcium (0.03 mM) control
Method: The effect of the Chamaecyparis obtusa polysaccharide of the present invention on the promotion of cell differentiation was examined by measuring the amount of CE (cornified envelop) produced during differentiation of keratinocytes and a human keratinocyte cell line (HaCaT).
Primarily cultured human keratinocytes were placed in a culture flask and allowed to adhere to the bottom of the flask, and then calcium and the Chamaecyparis obtusa polysaccharide were added to the culture media at varying concentrations. The cells were cultured for 5 days to a confluency of about 70-80%. The cultured cells were harvested and washed with PBS (phosphate buffered saline), and then 1 ml of 10 mM Tris-HCl buffer (pH 7.4), containing 2% SDS (sodium dodecyl sulfate) and 20 mM DTT (dithiothreitol), was added to the cells. The cell solution was sonicated, boiled and centrifuged, and the resulting precipitate was suspended in 1 ml of PBS and measured for absorbance at 340 nm. Meanwhile, a portion of the solution after the sonication was taken and measured for its protein content, and the measured value was used as a standard for evaluating the degree of cell differentiation. […] Each of the measurement values was calculated relative to 100 for the negative control (low calcium concentration), and the results of the calculation are shown in Table 6 below.

transglutaminase = experiment: Expression of transglutaminase in human keratinocytes; type: cell-based; details: Ca^2+ 1.2 mM (positive control); relative to 100 for low calcium (0.03 mM) control
Method: Human skin cells were placed in a 96-well plate at a concentration of 5×10^4 cells/well and attached to the plate for 24 hours. The attached skin cells were treated with the test material, and after 2 days, the medium was removed, and the cells were stored in a refrigerator at […]. The cells were frozen and thawed twice, disrupted and treated with acetone:ethanol (1:1, v/v), stored at −20° C. The treated cells were left to stand at 4° C. for 30 minutes to immobilize the cells. Then, the cells were left to stand at room temperature to evaporate the organic solvent and were blocked with 1% bovine serum albumin. The blocked cells were treated with transglutaminase antibody (primary antibody) and HRP anti-mouse antibody (secondary antibody), and the color development of the cells was carried out by the addition of OPD (o-phenyldiamine). The expression level of transglutaminase in the cells was measured by measuring the absorbance at 490 nm, and the correction was carried out by measuring the background at 630 nm. A low calcium (0.03 mM)-treated group and a high calcium (1.2 mM)-treated group were used as a negative control group and a positive control group, respectively. Each of the measurement values was calculated relative to 100 for the negative control (low calcium concentration), and the results of the calculation are shown in Table 7 below.

human skin = experiment: Whitening effect on UVB-darkened human skin (colorimeter); type: in vivo; details: UVB-darkened upper arm; 10 weeks of application; solvent control 0.51 ± 0.13
Method: In order to examine the whitening effect of the Chamaecyparis obtusa polysaccharide of the present invention on the human skin, the following test was carried out. First, on 12 healthy men as subjects, a 1.5-cm perforated opaque tape was attached to the upper arm portion of the subjects, and then the attached portion was radiated with UVB at a dose about 1.5-2 times the minimal erythema dose of each subject to induce skin darkening.
The color of the skin was measured with a colorimeter CR2002 (Japan, Minolta). Then, the difference (ΔL*) in skin color between the time point of initiation of application and the time point of completion of application (after 10 weeks) of each test material was calculated according to the following equation 3, and the results of the calculation are shown in Table 5 below.
Meanwhile, the skin whitening effect is evaluated by measuring the ΔL* value between the sample-applied portion and the control portion. […] Difference (ΔL*) skin color=L*value at the time of completion of application−L*value at the time of initiation of application [Formula 3]

[2] = tested on: TPA-induced mouse ear inflammation; experiment: TPA-induced mouse ear inflammation model; type: in vivo, ICR mice; details: 24 hours after TPA, polysaccharide 0.5% in 80% ethanol, indomethacin 0.5 mg/ear
Method: The tetradecanoyl phorbol acetate (TPA)-induced mouse ear inflammation model is an experimental method which is widely used to test the mechanism of action of inflammatory responses and the effect of inhibitors (De Young L M et al., Agents and Actions, 26; 335-341 (1989)). In order to confirm the inflammation inhibitory effect of the Chamaecyparis obtusa polysaccharide, 8-week-old male ICR mice (8 animals per group) were prepared. The test group was treated with TPA and applied with a solution of the Chamaecyparis obtusa polysaccharide dispersed in a 80% ethanol aqueous solution, the untreated group was applied with a 80% ethanol aqueous solution alone without treatment with TPA, the negative control group was treated with TPA and applied with a 80% ethanol aqueous solution alone, and the positive control group was treated with TPA and applied with 0.5 mg of indomethacine (Sigma, USA) in place of the Chamaecyparis obtusa polysaccharide. […] The mice of the untreated group, the negative control group and the positive control group were also treated as described above. At 24 hours after application of TPA, the mice were euthanized by cervical dislocation, and the left ear was sampled in a given area, and the weight thereof was measured. […] The inhibition (%) is calculated according to the following equation 4. […]

[3] = tested on: MMP-1 (matrix metalloproteinase I); experiment: Inhibition of UV-B-induced MMP-1 biosynthesis in human normal fibroblasts (ELISA); type: cell-based; details: irradiated with UV-B 40 mJ/cm^2; 10 μM; 2 days; non-irradiated control 100, UV alone 152
Method: Human normal fibroblasts were cultured in a 12-well culture plate at a concentration of 10^5 cells/well, and then irradiated with 40 mJ/cm^2 of UV-B, after which the medium was replaced with a medium containing each of 1 ppm, 10 ppm and 50 ppm of the Chamaecyparis obtusa polysaccharide obtained in Preparation Example 1. At 2 days of culture, the cells were harvested, and the amount of MMP-1 (matrix metalloproteinase I) produced in the cells was measured by an ELISA assay. As a positive control, retinoic acid (RA, Sigma, USA) was used. Each of the measurement values was calculated relative to […] for a control containing no Chamaecyparis obtusa polysaccharide and which was not irradiated with UV-B. The results of the calculation are shown in Table 2 below.

type I procollagen = experiment: Type I procollagen assay (ELISA) in human normal fibroblasts; type: cell-based; details: 10 ng/Ml; positive control set to 100
Method: Human normal fibroblasts were cultured in a 12-well culture plate at a concentration of 10^5 cells/well, and then the medium was replaced with each of media containing 1 ppm, 10 ppm and 50 ppm of the Chamaecyparis obtusa polysaccharide obtained in Preparation Example 1. As a positive control, TGF-β (Human Transforming Growth Factor-β1, Roche Co.) was used. At 3 days of culture, the cells were harvested, and the amount of type I procollagen produced in the cells was measured by an ELISA assay. Each of the measurement values was calculated relative to 0 for a control containing no Chamaecyparis obtusa polysaccharide and 100 for the positive control, and the results of the calculation are shown in Table 1 below.

OC[C@H]1O[C@@H](Oc2ccc(O)cc2)[C@H](O)[C@@H](O)[C@@H]1O [Arbutin, arbutin]
inhibition at 100 ppm [1]: 52%

[Ca+2] [Ca^2+, calcium]
Differentiation (%) of keratinocytes (human keratinocytes): 215% | Expression (%) of transglutaminase (transglutaminase): 138%

Oc1ccc(O)cc1 [Hydroquinone, hydroquinone]
Difference (ΔL*) in skin color (human skin): 1.89 ± 0.15

COc1ccc2c(c1)c(CC(=O)O)c(C)n2C(=O)c1ccc(Cl)cc1 [Indomethacin, indomethacine]
Inhibition (%) (mean) [2]: 92% | Ear weight (mean ± SD) ([2]; untreated 6.64 ± 0.65, TPA alone 13.21 ± 2.49): 7.20 ± 0.57

CC1=C(/C=C/C(C)=C/C=C/C(C)=C/C(=O)O)C(C)(C)CCC1 [RA, retinoic acid]
MMP-1 biosynthesis (%) [3]: 45%

TGF-β: Human Transforming Growth Factor-β1, Roche Co.; positive control
Type I procollagen biosynthesis (%) (type I procollagen): 100%
